Data reported in publication PMC9166630, “SAR Probing of KX2-391 Provided Analogues With Juxtaposed Activity Profile Against Major Oncogenic Kinases” (Frontiers in Oncology, 2022).
Values joined by “and” are separate entries in the source; they are usually repeats but may differ in a detail not shown here. Equal values may be shown once.

Legend:
[1] = system: Ron; assay: PamChip tyrosine kinase microarray, Ron; format: biochemical, human; details: 4e 0.1 µM, HL60 lysate
Experimental: (§1) The changes in kinase activities induced by treatment with 4e were monitored within the HL60 cell lines using PamGene’s (Hertogenbosch, Netherlands) PamChip® peptide microarray profiler, which quantifies the activities of 144 tyrosine kinases (YK) ([29], [30]) (Figure 7). Results are provided as a log fold change (LFC) heatmap and Mean Kinase Statistic. From the LFC it is apparent that compound 4e, at a concentration of 0.1 µM, induced sizable changes to the activity of several kinases within the cell signaling YK profile (Figure 7A).
(§2) An Upstream Kinase tool was used to generate a putative list of kinases responsible for phosphorylating the phospho-sites on the PamChip (Figure 7B) ([31]). It is an interpretation and is highly dependent on the contents of the underlying phosphorylation databases. A Kinase Score was used for ranking kinases based on their significance and specificity in terms of the set of peptides used for the corresponding kinase. Kinase Statistics indicates the overall change of the peptide set that represents the kinase. Kinase statistics value <0 indicates lower kinase activity in the compound spiked lysate and vice versa ([32], [33]). Table 5 lists the 20 most changed kinases within treated HL60 cell lysates by 0.1 μM 4e, ranked according to their Kinase Score.
(§3) The compound 4e was spiked into HL60 cell lysate at different concentrations (0.001, 0.01, 0.1, 1, 10 and 50 μM). In addition, DMSO was also spiked in HL60 lysate at low concentration (2% v/v) as control. Samples were profiled on PamGene’s Tyrosine Kinase (PTK) arrays in technical replicates, covering a total of 196 phosphorylation sites. Frozen HL60 cultured cell pellet was sent to PamGene. At PamGene, cells were lysed using a lysis buffer and proteases inhibitors cocktail. Protein concentration was measured using standard Bradford assay as per PamGene SOPs. These lysates were further used for generating the PTK activity profiles. For spiking, 4e was received as powder form and dissolved in DMSO at PamGene facility followed by storing at -20°C in small aliquots. PamGene used its in-house bioinformatics toolbox in combination with other methods to generate hypotheses of signaling pathways.

[2] = biological target: T1, EphA5 (Homo sapiens, UniProt P54756); assay: PamChip tyrosine kinase microarray, EphA5; format: biochemical; details: 4e 0.1 µM, HL60 lysate
T1 construct: endogenous in cells; host or cells: HL60 lysate
T1 sequence (P54756 25-1037): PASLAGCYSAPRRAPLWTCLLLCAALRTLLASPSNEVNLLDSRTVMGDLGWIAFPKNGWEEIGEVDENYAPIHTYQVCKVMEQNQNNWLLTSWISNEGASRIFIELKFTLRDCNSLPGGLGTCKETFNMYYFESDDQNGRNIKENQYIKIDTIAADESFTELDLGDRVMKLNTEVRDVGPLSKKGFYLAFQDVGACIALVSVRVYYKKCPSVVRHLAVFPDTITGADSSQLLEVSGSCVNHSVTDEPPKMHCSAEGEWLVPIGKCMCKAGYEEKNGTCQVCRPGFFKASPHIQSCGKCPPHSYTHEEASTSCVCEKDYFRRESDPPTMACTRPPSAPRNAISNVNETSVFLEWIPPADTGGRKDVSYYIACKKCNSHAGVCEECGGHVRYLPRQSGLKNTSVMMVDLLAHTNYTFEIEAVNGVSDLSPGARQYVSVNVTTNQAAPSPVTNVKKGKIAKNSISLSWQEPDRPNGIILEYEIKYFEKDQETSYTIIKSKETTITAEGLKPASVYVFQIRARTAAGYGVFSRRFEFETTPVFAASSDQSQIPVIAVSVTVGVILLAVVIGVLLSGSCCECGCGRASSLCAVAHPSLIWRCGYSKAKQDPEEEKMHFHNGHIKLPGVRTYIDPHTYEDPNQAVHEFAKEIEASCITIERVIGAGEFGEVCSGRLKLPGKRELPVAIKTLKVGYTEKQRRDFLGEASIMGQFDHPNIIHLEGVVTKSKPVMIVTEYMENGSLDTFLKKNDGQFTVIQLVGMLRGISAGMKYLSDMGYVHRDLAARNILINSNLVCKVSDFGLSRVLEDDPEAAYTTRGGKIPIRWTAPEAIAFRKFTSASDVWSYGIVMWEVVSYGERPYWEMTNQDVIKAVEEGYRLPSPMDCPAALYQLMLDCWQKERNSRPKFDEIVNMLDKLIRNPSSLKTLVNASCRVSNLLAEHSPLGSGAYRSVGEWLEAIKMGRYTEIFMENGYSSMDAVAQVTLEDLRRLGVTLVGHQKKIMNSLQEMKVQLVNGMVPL
Experimental: as §1, §2, §3

[3] = biological target: T2, TEC (Homo sapiens, UniProt P42680); assay: PamChip tyrosine kinase microarray, TEC; format: biochemical; details: 4e 0.1 µM, HL60 lysate
T2 construct: endogenous in cells; host or cells: HL60 lysate
T2 sequence (P42680 1-631): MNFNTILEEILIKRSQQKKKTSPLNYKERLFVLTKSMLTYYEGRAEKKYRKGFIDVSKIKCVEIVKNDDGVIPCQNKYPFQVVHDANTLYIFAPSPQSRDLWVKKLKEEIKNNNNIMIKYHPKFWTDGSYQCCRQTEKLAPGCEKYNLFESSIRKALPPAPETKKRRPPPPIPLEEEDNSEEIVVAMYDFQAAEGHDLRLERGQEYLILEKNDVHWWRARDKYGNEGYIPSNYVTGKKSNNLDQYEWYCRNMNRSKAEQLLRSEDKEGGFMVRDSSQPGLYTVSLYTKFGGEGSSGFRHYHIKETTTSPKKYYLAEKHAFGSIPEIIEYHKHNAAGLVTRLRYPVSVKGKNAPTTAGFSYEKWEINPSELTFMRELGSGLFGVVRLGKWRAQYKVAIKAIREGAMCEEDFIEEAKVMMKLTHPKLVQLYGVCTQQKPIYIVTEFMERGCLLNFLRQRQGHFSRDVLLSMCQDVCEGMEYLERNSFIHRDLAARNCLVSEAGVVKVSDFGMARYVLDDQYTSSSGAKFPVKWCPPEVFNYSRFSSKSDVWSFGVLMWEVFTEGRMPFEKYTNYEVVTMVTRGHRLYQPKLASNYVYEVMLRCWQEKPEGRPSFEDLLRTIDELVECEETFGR
Experimental: as §1, §2, §3

[4] = system: Lyn; assay: PamChip tyrosine kinase microarray, Lyn; format: biochemical, human; details: 4e 0.1 µM, HL60 lysate
Experimental: as §1, §2
(§4) The two multiple-kinase tests (PamChip and Phosphokinase Profiler) provided strong evidence of very minor involvement of Src in the cellular activities of 4e. However, the question must be raised about the effect of the 4e on other SRC family kinase (SFK). To address this point, we must highlight that both R&D phosphokinase profiler and PamChip feature Yes, Fgr, Lyn, Lck and Src while Fyn, Hck, Blk and Frk activities are tested in the PamChip only. The signals of SFKs in the R&D Phosphokinase Profiler were too weak to detect in both untreated (control) and 4e-treated HL60 cells. In PamChip assay, most of SFK’s were not ranked in the top 20 affected kinases (Table 5). In addition, their Specificity Score were very low (Table 6) indicating their marginal importance to the cell killing activities of 4e. Fgr kinase which ranked 7th in the list (Table 5) was the only SFK member that seems to be affected by the compound, albeit with low Specificity Score (1.03).
(§5) The compound 4e was spiked into HL60 cell lysate at different concentrations (0.001, 0.01, 0.1, 1, 10 and 50 μM). In addition, DMSO was also spiked in HL60 lysate at low concentration (2% v/v) as control. Samples were profiled on PamGene’s Tyrosine Kinase (PTK) arrays in technical replicates, covering a total of 196 phosphorylation sites. Frozen HL60 cultured cell pellet was sent to PamGene. […] Protein concentration was measured using standard Bradford assay as per PamGene SOPs. […]

[5] = system: Lck; assay: PamChip tyrosine kinase microarray, Lck; format: biochemical, human; details: 4e 0.1 µM, HL60 lysate
Experimental: as §1, §2, §4, §5

[6] = biological target: T3, Fgr (Homo sapiens, UniProt P09769); assay: PamChip tyrosine kinase microarray, Fgr; format: biochemical; details: 4e 0.1 µM
T3 construct: endogenous in cells; host or cells: HL60 lysate
T3 sequence (P09769 whole entry): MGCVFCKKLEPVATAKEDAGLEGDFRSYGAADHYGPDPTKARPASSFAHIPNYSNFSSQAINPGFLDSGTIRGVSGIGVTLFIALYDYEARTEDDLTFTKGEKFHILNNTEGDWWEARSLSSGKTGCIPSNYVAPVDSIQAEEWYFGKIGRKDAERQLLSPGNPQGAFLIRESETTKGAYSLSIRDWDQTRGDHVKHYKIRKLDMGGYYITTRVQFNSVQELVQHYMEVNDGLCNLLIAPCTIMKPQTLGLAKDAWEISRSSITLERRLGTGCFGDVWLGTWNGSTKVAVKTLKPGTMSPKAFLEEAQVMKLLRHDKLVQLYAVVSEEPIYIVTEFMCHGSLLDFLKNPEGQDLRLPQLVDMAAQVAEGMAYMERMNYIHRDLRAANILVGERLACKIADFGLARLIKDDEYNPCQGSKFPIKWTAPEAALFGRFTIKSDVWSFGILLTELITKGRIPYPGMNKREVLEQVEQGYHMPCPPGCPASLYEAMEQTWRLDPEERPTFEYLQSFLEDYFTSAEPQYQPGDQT
Experimental: as §1, §2, §3

O=C(Cc1ccc(NC(=O)c2cccc(Cl)c2)cc1)NCc1ccccc1 [Compound 4e, N-(4-(2-(benzylamino)-2-oxoethyl)phenyl)-3-chlorobenzamide]
Mean Final Score [1]: 1.8398
Mean Kinase Statistic [1]: -0.6967
Mean Significance Score [1]: 1.0254
Mean Specificity Score [1]: 0.8144
Mean Final Score [2]: 2.9453
Mean Kinase Statistic [2]: -0.8931
Mean Significance Score [2]: 1.7474
Mean Specificity Score [2]: 1.1979
Mean Final Score [3]: 1.9733
Mean Kinase Statistic [3]: -0.5256
Mean Significance Score [3]: 1.3350
Mean Specificity Score [3]: 0.6383
Mean Final Score [4]: 1.9530
Mean Kinase Statistic [4]: -0.5775
Mean Significance Score [4]: 1.2715
Mean Specificity Score [4]: 0.6815
Mean Final Score [5]: 1.2290
Mean Kinase Statistic [5]: -0.5054
Mean Significance Score [5]: 0.8208
Mean Specificity Score [5]: 0.4082
PamGene Ranking ([6]; HL60): 7
Mean Final Score ([6]; HL60 lysate): 2.2023
Mean Kinase Statistic ([6]; HL60 lysate): -0.7971
Mean Significance Score ([6]; HL60 lysate): 1.1688
Mean Specificity Score ([6]; HL60 lysate): 1.03 and 1.0335
